From US8129417B2, “Substituted octahydrocyclopenta[C]pyrrol-4-amines as calcium channel blockers” (Abbott Laboratories, priority 2008, dated 2012)

These compounds were tested against human Cav2.2 (Homo sapiens, UniProt Q00975) (assay: Assessment of calcium channel activity using FLIPR (Ca2+ influx in IMR32 cells)). Settings: 60 minute pre-incubation with compound, 2 μM nifedipine, depolarized with 80 mM KCl.
Type: cell-based
Method in brief: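 IMR32 neuroblastoma cells seeded at 1-1.2×10^5 cells/well and grown 48 h at 37 °C before FLIPR Ca2+ influx read. Percent inhibition at each concentration vs no-inhibitor activity; IC50 by non-linear sigmoidal dose-response fit.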

Chain of human Cav2.2 (Q00975 whole entry): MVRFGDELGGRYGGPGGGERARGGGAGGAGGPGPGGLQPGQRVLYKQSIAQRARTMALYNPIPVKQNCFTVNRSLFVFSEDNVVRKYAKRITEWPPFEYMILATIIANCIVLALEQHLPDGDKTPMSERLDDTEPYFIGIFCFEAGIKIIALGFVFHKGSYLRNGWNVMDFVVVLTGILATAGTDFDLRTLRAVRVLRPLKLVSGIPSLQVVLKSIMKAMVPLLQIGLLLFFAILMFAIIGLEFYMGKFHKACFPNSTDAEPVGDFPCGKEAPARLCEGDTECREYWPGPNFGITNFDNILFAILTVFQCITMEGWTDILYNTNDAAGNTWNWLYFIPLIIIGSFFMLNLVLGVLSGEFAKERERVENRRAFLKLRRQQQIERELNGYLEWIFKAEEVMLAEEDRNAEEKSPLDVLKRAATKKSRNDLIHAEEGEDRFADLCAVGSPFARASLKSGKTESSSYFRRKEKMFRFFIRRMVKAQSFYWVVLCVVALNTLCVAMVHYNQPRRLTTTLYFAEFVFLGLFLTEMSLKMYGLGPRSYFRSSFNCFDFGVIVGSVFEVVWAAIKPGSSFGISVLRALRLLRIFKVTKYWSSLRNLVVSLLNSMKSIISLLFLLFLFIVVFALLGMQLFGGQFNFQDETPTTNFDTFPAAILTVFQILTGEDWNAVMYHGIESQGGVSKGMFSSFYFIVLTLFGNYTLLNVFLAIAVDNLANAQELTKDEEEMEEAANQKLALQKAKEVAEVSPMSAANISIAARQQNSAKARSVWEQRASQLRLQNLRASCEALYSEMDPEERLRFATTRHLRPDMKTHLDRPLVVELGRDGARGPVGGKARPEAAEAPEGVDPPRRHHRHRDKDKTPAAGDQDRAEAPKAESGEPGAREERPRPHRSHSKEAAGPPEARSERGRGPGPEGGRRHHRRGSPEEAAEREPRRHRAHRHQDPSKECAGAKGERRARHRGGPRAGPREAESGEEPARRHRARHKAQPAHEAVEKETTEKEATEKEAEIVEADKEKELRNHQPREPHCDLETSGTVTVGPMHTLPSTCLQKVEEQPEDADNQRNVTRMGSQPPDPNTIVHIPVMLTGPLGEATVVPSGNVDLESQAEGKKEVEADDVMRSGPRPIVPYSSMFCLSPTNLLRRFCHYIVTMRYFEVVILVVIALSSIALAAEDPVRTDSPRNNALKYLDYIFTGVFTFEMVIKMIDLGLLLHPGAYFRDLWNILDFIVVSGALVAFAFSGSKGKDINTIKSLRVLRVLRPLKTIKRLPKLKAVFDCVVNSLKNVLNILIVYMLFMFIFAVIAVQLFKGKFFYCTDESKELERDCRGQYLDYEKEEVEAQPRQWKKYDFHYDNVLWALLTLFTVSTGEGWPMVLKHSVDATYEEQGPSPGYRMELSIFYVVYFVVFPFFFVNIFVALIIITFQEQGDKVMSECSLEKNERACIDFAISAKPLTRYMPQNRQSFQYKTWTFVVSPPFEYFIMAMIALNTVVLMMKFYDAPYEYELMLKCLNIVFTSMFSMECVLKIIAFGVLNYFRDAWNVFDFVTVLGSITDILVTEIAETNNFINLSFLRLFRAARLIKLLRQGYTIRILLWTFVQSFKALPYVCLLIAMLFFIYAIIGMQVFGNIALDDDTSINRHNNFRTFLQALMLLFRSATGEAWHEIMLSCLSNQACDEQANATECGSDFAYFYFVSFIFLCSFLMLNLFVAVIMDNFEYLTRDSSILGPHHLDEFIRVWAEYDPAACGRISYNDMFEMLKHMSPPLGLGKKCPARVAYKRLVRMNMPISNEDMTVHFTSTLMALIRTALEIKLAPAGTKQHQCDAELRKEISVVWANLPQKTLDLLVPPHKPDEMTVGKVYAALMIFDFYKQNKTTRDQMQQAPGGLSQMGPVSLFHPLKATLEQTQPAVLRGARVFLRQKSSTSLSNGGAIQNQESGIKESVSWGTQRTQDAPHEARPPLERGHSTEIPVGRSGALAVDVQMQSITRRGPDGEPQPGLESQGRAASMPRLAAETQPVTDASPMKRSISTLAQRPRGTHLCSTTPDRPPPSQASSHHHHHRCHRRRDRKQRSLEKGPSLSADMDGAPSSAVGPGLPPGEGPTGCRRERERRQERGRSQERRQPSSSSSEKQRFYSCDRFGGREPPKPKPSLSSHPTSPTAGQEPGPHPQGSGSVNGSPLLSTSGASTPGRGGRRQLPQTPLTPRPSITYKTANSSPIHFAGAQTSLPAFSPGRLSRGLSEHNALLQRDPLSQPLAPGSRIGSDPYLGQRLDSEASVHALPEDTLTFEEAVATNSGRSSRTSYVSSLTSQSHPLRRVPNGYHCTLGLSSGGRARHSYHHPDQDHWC
Chain of human Cav2.2 (P54289 25-946 partner limits assumed): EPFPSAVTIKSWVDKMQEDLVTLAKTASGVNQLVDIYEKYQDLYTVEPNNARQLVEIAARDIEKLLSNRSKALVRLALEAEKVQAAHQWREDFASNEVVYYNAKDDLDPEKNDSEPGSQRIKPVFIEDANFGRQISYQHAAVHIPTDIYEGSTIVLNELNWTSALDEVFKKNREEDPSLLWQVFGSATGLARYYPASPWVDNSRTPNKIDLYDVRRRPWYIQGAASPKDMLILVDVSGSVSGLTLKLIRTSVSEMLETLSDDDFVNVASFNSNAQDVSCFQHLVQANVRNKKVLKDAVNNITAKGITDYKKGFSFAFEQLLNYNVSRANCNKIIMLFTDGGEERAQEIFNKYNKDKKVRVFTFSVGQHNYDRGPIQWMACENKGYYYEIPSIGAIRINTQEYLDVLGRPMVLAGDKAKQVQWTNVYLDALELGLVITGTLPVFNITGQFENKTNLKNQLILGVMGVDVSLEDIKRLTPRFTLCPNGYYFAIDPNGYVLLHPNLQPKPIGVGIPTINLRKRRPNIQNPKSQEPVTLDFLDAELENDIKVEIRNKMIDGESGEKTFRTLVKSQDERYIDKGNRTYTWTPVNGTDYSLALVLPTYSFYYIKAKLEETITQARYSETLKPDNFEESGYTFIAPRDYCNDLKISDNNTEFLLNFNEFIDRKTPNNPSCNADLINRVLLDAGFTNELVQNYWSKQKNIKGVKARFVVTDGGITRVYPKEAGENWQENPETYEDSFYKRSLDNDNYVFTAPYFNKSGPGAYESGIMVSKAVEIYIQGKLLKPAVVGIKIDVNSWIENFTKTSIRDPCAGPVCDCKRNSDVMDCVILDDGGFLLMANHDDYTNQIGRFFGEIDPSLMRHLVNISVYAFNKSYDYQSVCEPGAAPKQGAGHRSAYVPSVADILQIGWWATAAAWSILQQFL
Chain of human Cav2.2 (P54289 947-1103 partner limits assumed): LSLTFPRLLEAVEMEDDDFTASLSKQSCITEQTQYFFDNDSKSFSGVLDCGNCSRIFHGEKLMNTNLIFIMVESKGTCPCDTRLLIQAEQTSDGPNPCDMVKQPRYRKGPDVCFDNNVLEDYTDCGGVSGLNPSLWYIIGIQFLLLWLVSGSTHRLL
Chain of human Cav2.2 (P54284 whole entry partner): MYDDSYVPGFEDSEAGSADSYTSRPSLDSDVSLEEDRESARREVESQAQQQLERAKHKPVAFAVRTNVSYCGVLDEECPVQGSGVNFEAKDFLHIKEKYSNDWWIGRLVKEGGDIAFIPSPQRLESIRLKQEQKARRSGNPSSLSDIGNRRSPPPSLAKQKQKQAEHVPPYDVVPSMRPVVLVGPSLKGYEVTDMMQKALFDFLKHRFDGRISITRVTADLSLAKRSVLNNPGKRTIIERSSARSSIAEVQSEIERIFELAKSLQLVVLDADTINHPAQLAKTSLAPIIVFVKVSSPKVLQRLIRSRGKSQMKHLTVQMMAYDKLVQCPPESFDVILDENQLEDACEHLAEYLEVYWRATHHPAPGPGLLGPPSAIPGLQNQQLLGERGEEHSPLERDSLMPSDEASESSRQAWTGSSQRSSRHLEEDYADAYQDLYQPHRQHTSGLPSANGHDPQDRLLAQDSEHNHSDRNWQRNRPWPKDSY

SMILES | IC50
CC(C)C[C@H](NC(=O)OC(C)(C)C)C(=O)N[C@H]1CC[C@@H]2CN(Cc3ccccc3)C[C@@H]21 [Example 221, tert-butyl(S)-1-((3aR,4S,6aS)-2-benzyloctahydrocyclopenta[c]pyrrol-4-ylamino)-4-methyl-1-oxopentan-2-ylcarbamate] | 3.93 µM
CC(C)C[C@@H](C(=O)N[C@H]1CC[C@@H]2CN(Cc3ccccc3)C[C@@H]21)N(C)C(=O)OC(C)(C)C [Example 222, tert-butyl(S)-1-((3aR,4S,6aS)-2-benzyloctahydrocyclopenta[c]pyrrol-4-ylamino)-4-methyl-1-oxopentan-2-yl(methyl)carbamate] | 2.05 µM
CCN(C(=O)OC(C)(C)C)[C@@H](CC(C)C)C(=O)N[C@H]1CC[C@@H]2CN(Cc3ccccc3)C[C@@H]21 [Example 223, tert-butyl(S)-1-((3aR,4S,6aS)-2-benzyloctahydrocyclopenta[c]pyrrol-4-ylamino)-4-methyl-1-oxopentan-2-yl(ethyl)carbamate] | 2.06 µM
CC[C@H](C)[C@@H](C(=O)N[C@H]1CC[C@@H]2CN(Cc3ccccc3)C[C@@H]21)N(C)C(=O)OC(C)(C)C [Example 224, tert-butyl(2S,3S)-1-((3aR,4S,6aS)-2-benzyloctahydrocyclopenta[c]pyrrol-4-ylamino)-3-methyl-1-oxopentan-2-yl(methyl)carbamate] | 4.64 µM
CC(C)(C)C[C@H](NC(=O)OC(C)(C)C)C(=O)N[C@H]1CC[C@@H]2CN(Cc3ccccc3)C[C@@H]21 [Example 226, tert-butyl(S)-1-((3aR,4S,6aS)-2-benzyloctahydrocyclopenta[c]pyrrol-4-ylamino)-4,4-dimethyl-1-oxopentan-2-ylcarbamate] | 4.06 µM
CCCC[C@@H](C(=O)N[C@H]1CC[C@@H]2CN(Cc3ccccc3)C[C@@H]21)N(C)C(=O)OC(C)(C)C [Example 227, tert-butyl(S)-1-((3aR,4S,6aS)-2-benzyloctahydrocyclopenta[c]pyrrol-4-ylamino)-1-oxohexan-2-yl(methyl)carbamate] | 3.17 µM
O=C(N[C@H]1CC[C@@H]2CN(Cc3ccccc3)C[C@@H]21)C(c1ccc(F)cc1)c1ccc(F)cc1 [Example 228, N-[(3aR,4S,6aS)-2-benzyloctahydrocyclopenta[c]pyrrol-4-yl]-2,2-bis(4-fluorophenyl)acetamide] | 2.09 µM
CC(C)[C@@H](C(=O)N[C@@H]1CC[C@H]2CN(Cc3ccccc3)C[C@H]21)N(C)C(=O)OC(C)(C)C [Example 232, tert-butyl(S)-1-((3aS,4R,6aR)-2-benzyloctahydrocyclopenta[c]pyrrol-4-ylamino)-3-methyl-1-oxobutan-2-yl(methyl)carbamate] | 3.6 µM
CC(C)(C)OC(=O)N[C@H](C(=O)N[C@@H]1CC[C@H]2CN(Cc3ccccc3)C[C@H]21)C(C)(C)C [Example 234, tert-butyl(S)-1-((3aS,4R,6aR)-2-benzyloctahydrocyclopenta[c]pyrrol-4-ylamino)-3,3-dimethyl-1-oxobutan-2-ylcarbamate] | 7.4 µM
CC(C)C(C(=O)N[C@@H]1CC[C@H]2CN(Cc3ccccc3)C[C@H]21)C(C)C [Example 235, N-[(3aS,4R,6aR)-2-benzyloctahydrocyclopenta[c]pyrrol-4-yl]-2-isopropyl-3-methylbutanamide] | 14.2 µM
O=C(N[C@H]1CC[C@H]2CN(Cc3cccc(C(F)(F)F)c3)C[C@H]21)C(O)C1CCCCC1 (stereo partly drawn) [Example 237, 2-cyclohexyl-2-hydroxy-N-{(3aS,4S,6aR)-2-[3-(trifluoromethyl)benzyl]octahydrocyclopenta[c]pyrrol-4-yl}acetamide] | 1.88 µM
CCC[C@@H](C(=O)N[C@H]1CC[C@H]2CN(Cc3ccccc3)C[C@H]21)N(C)C(=O)OC(C)(C)C [Example 238, tert-butyl(S)-1-((3aS,4S,6aR)-2-benzyloctahydrocyclopenta[c]pyrrol-4-ylamino)-1-oxopentan-2-yl(methyl)carbamate] | 5.73 µM
CCC[C@@H](C(=O)N[C@@H]1CC[C@@H]2CN(Cc3ccccc3)C[C@@H]21)N(C)C(=O)OC(C)(C)C [Example 240, tert-butyl(S)-1-((3aR,4R,6aS)-2-benzyloctahydrocyclopenta[c]pyrrol-4-ylamino)-1-oxopentan-2-yl(methyl)carbamate] | 2.67 µM
CC(C)C[C@H](NS(C)(=O)=O)C(=O)N[C@H]1CC[C@@H]2CN(Cc3ccccc3)C[C@@H]21 [Example 242, N^1-[(3aR,4S,6aS)-2-benzyloctahydrocyclopenta[c]pyrrol-4-yl]-N^2-(methylsulfonyl)-L-leucinamide] | 7.92 µM
CC(C)C[C@H](NCC(C)(C)C)C(=O)N[C@@H]1CC[C@H]2CN(Cc3ccccc3)C[C@H]21 [Example 245, N^1-[(3aS,4R,6aR)-2-benzyloctahydrocyclopenta[c]pyrrol-4-yl]-N^2-neopentyl-L-leucinamide] | 8.08 µM
CN(C(=O)OC(C)(C)C)[C@@H](CC(C)(C)C)C(=O)N[C@H]1CC[C@@H]2CN(Cc3ccccc3)C[C@@H]21 [Example 247, tert-butyl(S)-1-((3aR,4S,6aS)-2-benzyloctahydrocyclopenta[c]pyrrol-4-ylamino)-4,4-dimethyl-1-oxopentan-2-yl(methyl)carbamate] | 3.62 µM
CN(C(=O)OC(C)(C)C)[C@@H](CC(C)(C)C)C(=O)N[C@@H]1CC[C@H]2CN(Cc3ccccc3)C[C@H]21 [Example 248, tert-butyl(S)-1-((3aS,4R,6aR)-2-benzyloctahydrocyclopenta[c]pyrrol-4-ylamino)-4,4-dimethyl-1-oxopentan-2-yl(methyl)carbamate] | 1.67 µM
CC(C)C[C@H](NCC(C)(C)C)C(=O)N[C@H]1CC[C@@H]2CN(S(=O)(=O)c3cccc(C(F)(F)F)c3)C[C@@H]21 [Example 252, N^2-neopentyl-N^1-((3aR,4S,6aS)-2-{[3-(trifluoromethyl)phenyl]sulfonyl}octahydrocyclopenta[c]pyrrol-4-yl)-L-leucinamide] | 0.64 µM
CCC[C@H](NCC(C)(C)C)C(=O)N[C@H]1CC[C@@H]2CN(S(=O)(=O)c3cccc(C(F)(F)F)c3)C[C@@H]21 [Example 253, N^2-neopentyl-N^1-((3aR,4S,6aS)-2-{[3-(trifluoromethyl)phenyl]sulfonyl}octahydrocyclopenta[c]pyrrol-4-yl)-L-norvalinamide] | 0.36 µM
CC(C)C[C@H](NCC(C)(C)C)C(=O)N[C@@H]1CC[C@H]2CN(S(=O)(=O)c3cccc(C(F)(F)F)c3)C[C@H]21 [Example 254, N^2-neopentyl-N^1-((3aS,4R,6aR)-2-{[3-(trifluoromethyl)phenyl]sulfonyl}octahydrocyclopenta[c]pyrrol-4-yl)-L-leucinamide] | 0.72 µM
CCC[C@H](NCC(C)(C)C)C(=O)N[C@@H]1CC[C@H]2CN(S(=O)(=O)c3cccc(C(F)(F)F)c3)C[C@H]21 [Example 255, N^2-neopentyl-N^1-((3aS,4R,6aR)-2-{[3-(trifluoromethyl)phenyl]sulfonyl}octahydrocyclopenta[c]pyrrol-4-yl)-L-norvalinamide] | 0.55 µM
CC(C)C[C@H](NCC(C)(C)C)C(=O)N[C@H]1CC[C@@H]2CN(S(=O)(=O)c3ccc(C(F)(F)F)cc3)C[C@@H]21 [Example 256, N^2-neopentyl-N^1-((3aR,4S,6aS)-2-{[4-(trifluoromethyl)phenyl]sulfonyl}octahydrocyclopenta[c]pyrrol-4-yl)-L-leucinamide] | 1.38 µM
CN(C(=O)OC(C)(C)C)C(Cc1ccccc1)C(=O)NC1CCC2CN(S(=O)(=O)c3ccc(C(F)(F)F)cc3)CC21 [Example 258, N-(tert-butoxycarbonyl)-N-methyl-N-((3aR,4S,6aS)-2-{[4-(trifluoromethyl)phenyl]sulfonyl}octahydrocyclopenta[c]pyrrol-4-yl)-1-phenylalaninamide] | 0.85 µM
CCC[C@@H](C(=O)N[C@H]1CC[C@@H]2CN(S(=O)(=O)c3ccc(C(F)(F)F)cc3)C[C@@H]21)N(C)C(=O)OC(C)(C)C [Example 259, tert-butyl methyl((S)-1-oxo-1-((3aR,4S,6aS)-2-(4-(trifluoromethyl)phenylsulfonyl)octahydrocyclopenta[c]pyrrol-4-ylamino)pentan-2-yl)carbamate] | 1.14 µM
CC(C)(C)C[C@H](NC(=O)OC(C)(C)C)C(=O)N[C@H]1CC[C@@H]2CN(c3ccc(C(F)(F)F)cn3)C[C@@H]21 [Example 262, tert-butyl(S)-4,4-dimethyl-1-oxo-1-((3aR,4S,6aS)-2-(5-(trifluoromethyl)pyridin-2-yl)octahydrocyclopenta[c]pyrrol-4-ylamino)pentan-2-ylcarbamate] | 1.8 µM
CC(C)(C)C[C@H](NC(=O)OC(C)(C)C)C(=O)N[C@H]1CC[C@@H]2CN(c3cccc(C(F)(F)F)n3)C[C@@H]21 [Example 264, tert-butyl(S)-4,4-dimethyl-1-oxo-1-((3aR,4S,6aS)-2-(6-(trifluoromethyl)pyridin-2-yl)octahydrocyclopenta[c]pyrrol-4-ylamino)pentan-2-ylcarbamate] | 0.28 µM
CC(C)(C)C[C@H](NC(=O)OC(C)(C)C)C(=O)N[C@H]1CC[C@@H]2CN(c3cnc(S(C)(=O)=O)nc3)C[C@@H]21 [Example 265, tert-butyl(S)-4,4-dimethyl-1-((3aR,4S,6aS)-2-(2-(methylsulfonyl)pyrimidin-5-yl)octahydrocyclopenta[c]pyrrol-4-ylamino)-1-oxopentan-2-ylcarbamate] | 2.62 µM

Same assay, conditions: IMR-32, @ 10 μM, 3 minute pre-incubation (*), read-out: percent inhibition

SMILES | inhibition at 10 µM
CC[C@H](C(=O)N[C@@H]1CC[C@H]2CN([C@@H](C)c3ccccc3)C[C@H]21)c1ccccc1 [Example 213, (2S)-2-phenyl-N-{(3aS,4R,6aR)-2-[(1S)-1-phenylethyl]octahydrocyclopenta[c]pyrrol-4-yl}butanamide] | 60%
CC(C)C(C(=O)N[C@H]1CC[C@@H]2CN(C(=O)c3ccccc3)C[C@@H]21)c1ccccc1 (stereo partly drawn) [Example 218, N-[(3aR,4S,6aS)-2-benzoyloctahydrocyclopenta[c]pyrrol-4-yl]-3-methyl-2-phenylbutanamide] | 56%
CC(C)N(C(=O)N[C@H]1CC[C@@H]2CN(Cc3ccccc3)C[C@@H]21)c1ccccc1 [Example 219, N′-[(3aR,4S,6aS)-2-benzyloctahydrocyclopenta[c]pyrrol-4-yl]-N-isopropyl-N-phenylurea] | 63%
